Source: publication PMC7249612 (Biochemistry, 2016)

system: LoxA; test: LoxA inhibition, manual cuvette assay; type: biochemical, Pseudomonas aeruginosa; conditions: 25 μM inhibitor, 10 μM AA

Structure (SMILES) | single-point screen inhibition percentage, LoxA [%]
Fc1ccc(C(c2ccc(F)cc2)N2CCN(C/C=C\c3ccccc3)CC2)cc1 [NCGC00018102] | 86
O=C1NCN(c2ccccc2)C12CCN(CCCC(c1ccc(F)cc1)c1ccc(F)cc1)CC2 [NCGC00015424] | 87
CC(C)(C)c1ccc(C(=O)CCCN2CCC(OC(c3ccccc3)c3ccccc3)CC2)cc1 [NCGC00164603] | 95
O=C(CCCCCN1CCN(c2ccccc2-c2ccccc2)CC1)NC1CCCc2ccccc21 (stereo not shown) [NCGC00186032] | 87
Fc1ccc(C(OCCN2CCN(CCCc3ccccc3)CC2)c2ccc(F)cc2)cc1 [NCGC00015300] | 83

same assay, conditions: from single-point screens at 25 μM

Structure (SMILES) | selectivity for LoxA versus human LOX isozymes
Fc1ccc(C(c2ccc(F)cc2)N2CCN(C/C=C\c3ccccc3)CC2)cc1 [NCGC00018102] | selectivity towards LoxA over 12-LOX, 15-LOX-1, and 15-LOX-2
O=C1NCN(c2ccccc2)C12CCN(CCCC(c1ccc(F)cc1)c1ccc(F)cc1)CC2 [NCGC00015424] | selectivity towards LoxA over 12-LOX and 15-LOX-2 and not the other human isozymes

same assay, conditions: read-out: LoxA IC50; manual cuvette assay, pH 7.0, 10 μM AA

Structure (SMILES) | IC50 [µM]
Fc1ccc(C(c2ccc(F)cc2)N2CCN(C/C=C\c3ccccc3)CC2)cc1 [NCGC00018102] | 4.5 ± 0.4

target: T1, 15-LOX-1 (Homo sapiens, UniProt P16050); test: Human LOX isozyme specificity screen, 15-LOX-1; type: biochemical; conditions: 25 μM inhibitor, 10 μM AA
T1 sequence (P16050 1-662): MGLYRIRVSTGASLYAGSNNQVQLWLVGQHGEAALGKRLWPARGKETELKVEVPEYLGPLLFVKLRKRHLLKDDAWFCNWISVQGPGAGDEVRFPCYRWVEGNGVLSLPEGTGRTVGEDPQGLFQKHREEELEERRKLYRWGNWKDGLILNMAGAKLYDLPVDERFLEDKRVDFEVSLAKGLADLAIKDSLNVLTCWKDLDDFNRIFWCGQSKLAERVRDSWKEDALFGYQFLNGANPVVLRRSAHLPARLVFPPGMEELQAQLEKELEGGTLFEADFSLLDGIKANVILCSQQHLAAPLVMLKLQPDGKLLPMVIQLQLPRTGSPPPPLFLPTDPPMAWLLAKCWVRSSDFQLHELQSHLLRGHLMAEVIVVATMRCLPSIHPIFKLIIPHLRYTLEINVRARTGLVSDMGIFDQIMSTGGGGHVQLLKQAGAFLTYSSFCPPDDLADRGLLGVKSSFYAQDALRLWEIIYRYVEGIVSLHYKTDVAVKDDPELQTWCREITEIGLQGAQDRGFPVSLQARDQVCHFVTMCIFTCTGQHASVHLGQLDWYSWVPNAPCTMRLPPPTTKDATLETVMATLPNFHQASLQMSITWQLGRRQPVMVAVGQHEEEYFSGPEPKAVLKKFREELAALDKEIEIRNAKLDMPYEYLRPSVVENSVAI

Structure (SMILES) | single-point screen inhibition percentage, 15-LOX-l [%]
Fc1ccc(C(c2ccc(F)cc2)N2CCN(C/C=C\c3ccccc3)CC2)cc1 [NCGC00018102] | 65
O=C1NCN(c2ccccc2)C12CCN(CCCC(c1ccc(F)cc1)c1ccc(F)cc1)CC2 [NCGC00015424] | 76
CC(C)(C)c1ccc(C(=O)CCCN2CCC(OC(c3ccccc3)c3ccccc3)CC2)cc1 [NCGC00164603] | 76
O=C(CCCCCN1CCN(c2ccccc2-c2ccccc2)CC1)NC1CCCc2ccccc21 (stereo not shown) [NCGC00186032] | 57
Fc1ccc(C(OCCN2CCN(CCCc3ccccc3)CC2)c2ccc(F)cc2)cc1 [NCGC00015300] | 65

target: T2, 12-LOX (Homo sapiens, UniProt P18054); test: Human LOX isozyme specificity screen, 12-LOX; type: biochemical; conditions: 25 μM inhibitor, 10 μM AA
T2 sequence (P18054 1-663): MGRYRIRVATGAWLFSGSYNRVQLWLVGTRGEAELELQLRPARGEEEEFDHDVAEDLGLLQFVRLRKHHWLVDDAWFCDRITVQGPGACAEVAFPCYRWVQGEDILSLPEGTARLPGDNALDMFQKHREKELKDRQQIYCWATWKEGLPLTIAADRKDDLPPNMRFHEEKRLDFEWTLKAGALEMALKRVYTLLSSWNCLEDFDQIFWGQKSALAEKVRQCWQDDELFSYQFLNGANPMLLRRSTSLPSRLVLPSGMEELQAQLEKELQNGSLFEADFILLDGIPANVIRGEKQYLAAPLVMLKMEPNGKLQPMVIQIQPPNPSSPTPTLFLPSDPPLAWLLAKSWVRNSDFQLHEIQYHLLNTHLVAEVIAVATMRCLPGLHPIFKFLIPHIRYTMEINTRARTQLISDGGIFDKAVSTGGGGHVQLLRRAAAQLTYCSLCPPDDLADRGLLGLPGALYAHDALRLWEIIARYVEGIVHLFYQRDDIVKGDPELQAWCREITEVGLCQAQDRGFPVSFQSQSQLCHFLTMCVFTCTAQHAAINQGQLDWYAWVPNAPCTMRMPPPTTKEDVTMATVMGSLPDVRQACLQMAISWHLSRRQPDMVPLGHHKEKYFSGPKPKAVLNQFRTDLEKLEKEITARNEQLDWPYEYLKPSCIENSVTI

Structure (SMILES) | single-point screen inhibition percentage, 12-LOX [%]
Fc1ccc(C(c2ccc(F)cc2)N2CCN(C/C=C\c3ccccc3)CC2)cc1 [NCGC00018102] | 25
O=C1NCN(c2ccccc2)C12CCN(CCCC(c1ccc(F)cc1)c1ccc(F)cc1)CC2 [NCGC00015424] | 63
CC(C)(C)c1ccc(C(=O)CCCN2CCC(OC(c3ccccc3)c3ccccc3)CC2)cc1 [NCGC00164603] | 33
O=C(CCCCCN1CCN(c2ccccc2-c2ccccc2)CC1)NC1CCCc2ccccc21 (stereo not shown) [NCGC00186032] | 36
Fc1ccc(C(OCCN2CCN(CCCc3ccccc3)CC2)c2ccc(F)cc2)cc1 [NCGC00015300] | 48

target: T3, 15-LOX-2 (Homo sapiens, UniProt O15296); test: Human LOX isozyme specificity screen, 15-LOX-2; type: biochemical; conditions: 25 μM inhibitor, 10 μM AA
T3 sequence (O15296 1-676): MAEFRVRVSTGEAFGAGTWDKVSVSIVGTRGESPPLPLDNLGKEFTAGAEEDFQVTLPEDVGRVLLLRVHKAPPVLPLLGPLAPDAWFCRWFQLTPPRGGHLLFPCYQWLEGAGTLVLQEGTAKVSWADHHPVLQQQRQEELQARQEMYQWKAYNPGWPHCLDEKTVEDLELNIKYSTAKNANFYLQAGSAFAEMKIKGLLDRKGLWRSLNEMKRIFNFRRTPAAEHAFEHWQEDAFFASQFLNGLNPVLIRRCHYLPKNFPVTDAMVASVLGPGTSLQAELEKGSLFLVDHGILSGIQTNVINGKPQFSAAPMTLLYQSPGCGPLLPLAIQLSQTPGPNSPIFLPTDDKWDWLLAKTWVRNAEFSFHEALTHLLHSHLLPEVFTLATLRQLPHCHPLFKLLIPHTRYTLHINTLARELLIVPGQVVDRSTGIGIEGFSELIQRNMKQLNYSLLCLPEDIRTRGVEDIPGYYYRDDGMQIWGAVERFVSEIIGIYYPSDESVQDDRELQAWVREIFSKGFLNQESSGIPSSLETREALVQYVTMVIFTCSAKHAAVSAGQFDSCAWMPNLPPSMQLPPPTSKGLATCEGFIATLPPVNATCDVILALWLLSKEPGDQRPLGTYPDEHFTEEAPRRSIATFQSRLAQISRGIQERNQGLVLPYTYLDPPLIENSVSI

Structure (SMILES) | single-point screen inhibition percentage, 15-LOX-2 [%]
Fc1ccc(C(c2ccc(F)cc2)N2CCN(C/C=C\c3ccccc3)CC2)cc1 [NCGC00018102] | 0
O=C1NCN(c2ccccc2)C12CCN(CCCC(c1ccc(F)cc1)c1ccc(F)cc1)CC2 [NCGC00015424] | 21
CC(C)(C)c1ccc(C(=O)CCCN2CCC(OC(c3ccccc3)c3ccccc3)CC2)cc1 [NCGC00164603] | 0
O=C(CCCCCN1CCN(c2ccccc2-c2ccccc2)CC1)NC1CCCc2ccccc21 (stereo not shown) [NCGC00186032] | 5
Fc1ccc(C(OCCN2CCN(CCCc3ccccc3)CC2)c2ccc(F)cc2)cc1 [NCGC00015300] | 13

target: T4, 5-LOX (Homo sapiens, UniProt P09917); test: Human LOX isozyme specificity screen, 5-LOX; type: biochemical; conditions: 25 μM inhibitor, 10 μM AA
T4 sequence (P09917 1-674): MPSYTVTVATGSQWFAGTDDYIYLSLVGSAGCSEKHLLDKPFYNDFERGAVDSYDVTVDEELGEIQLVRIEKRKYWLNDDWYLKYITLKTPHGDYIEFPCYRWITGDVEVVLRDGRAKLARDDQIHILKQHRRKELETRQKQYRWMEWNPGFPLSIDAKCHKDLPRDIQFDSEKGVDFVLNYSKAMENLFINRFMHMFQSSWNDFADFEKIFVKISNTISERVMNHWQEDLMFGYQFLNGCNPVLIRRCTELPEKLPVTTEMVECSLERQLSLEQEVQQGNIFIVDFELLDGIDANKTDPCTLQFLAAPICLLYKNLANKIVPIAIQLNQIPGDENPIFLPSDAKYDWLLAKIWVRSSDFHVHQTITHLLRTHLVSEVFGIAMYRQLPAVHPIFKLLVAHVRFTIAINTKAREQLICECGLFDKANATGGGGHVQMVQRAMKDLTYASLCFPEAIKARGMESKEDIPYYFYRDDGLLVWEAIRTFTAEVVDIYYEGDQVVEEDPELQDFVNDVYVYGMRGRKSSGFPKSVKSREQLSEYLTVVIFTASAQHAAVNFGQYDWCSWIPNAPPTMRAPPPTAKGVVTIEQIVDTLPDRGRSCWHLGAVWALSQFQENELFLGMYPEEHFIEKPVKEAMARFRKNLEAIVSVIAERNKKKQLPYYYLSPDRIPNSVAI

Structure (SMILES) | single-point screen inhibition percentage, 5-LOX [%]
Fc1ccc(C(c2ccc(F)cc2)N2CCN(C/C=C\c3ccccc3)CC2)cc1 [NCGC00018102] | 96
O=C1NCN(c2ccccc2)C12CCN(CCCC(c1ccc(F)cc1)c1ccc(F)cc1)CC2 [NCGC00015424] | 74
CC(C)(C)c1ccc(C(=O)CCCN2CCC(OC(c3ccccc3)c3ccccc3)CC2)cc1 [NCGC00164603] | 23
O=C(CCCCCN1CCN(c2ccccc2-c2ccccc2)CC1)NC1CCCc2ccccc21 (stereo not shown) [NCGC00186032] | 78
Fc1ccc(C(OCCN2CCN(CCCc3ccccc3)CC2)c2ccc(F)cc2)cc1 [NCGC00015300] | 41
